Holding throughout (test): NCI anticancer screen, dose series, 48 h
Assay [1] relates to HT29 colon.
The subject of assay [2] is MDA-MB-435.
Assay [3] has as its system EKVX NSCLC.
The test system of assay [4] is BT-549 breast.
Assay [5] concerns NCI-H226 lung.
Assay [6] relates to OVCAR-3 ovarian.
The test system of assay [7] is MDA-N.
In assay [8] the test system is M14 melanoma.
Assay [9] has as its system CAKI-1 renal.
Assay [10] deals with LOX IMVI melanoma.
Assay [11] has as its system RXF 393 renal.
Assay [12] concerns SK-MEL-5 melanoma.

The structures appear in SMILES notation.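 Each compound was tested at five concentrations against cells in 96-well plates for 48 hours. Definition used: TGI = concentration required for complete inhibition of growth.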 Where a SMILES comes first, the peptide text is derived from it. Bridges are numbered along the chain shown (N, C = ends). [ ]: non-standard residue; d: D form. Aib = CC(C)(N)C(=O)O; βAla = NCCC(=O)O

Consider `Cc1ccc2c(c1)C(=C(C#N)C#N)CCCS2(=O)=O`, for which the TGI in assay [1], in assay [2], in [3], in [4], in assay [5] and in assay [6] was greater than 100 µM throughout. For the same compound, the TGI in [7], in assay [8], in assay [9], in [10] and in assay [11] was greater than 100 µM throughout.
For the compound `Cc1ccc(O)c(C(c2cccc(C(c3cc(C)ccc3O)c3cc(C)ccc3O)c2)c2cc(C)ccc2O)c1`, the TGI in assay [1] came to 3.16 µM; in assay [2] it was 3.26 µM; in assay [3] it was 3.63 µM; in assay [4], 4.11 µM; in assay [5], 3.31 µM; in assay [6], 4.35 µM. Moreover, the TGI came out at 3.35 µM in [7]; 3.45 µM in assay [8]; 3.93 µM in assay [12]; 3.04 µM in [9]; 3.2 µM in assay [11].
Turning to `Cc1[nH]c(=O)nc2nc3cc(Cl)cc(Cl)c3c(NC(C)(CO)CO)c12`, the TGI in assay [1], in [2], in assay [3], in assay [4], in assay [5] and in assay [6] was greater than 100 µM each time. Also, the TGI in [7], in assay [8], in assay [12], in [9], in assay [10] and in assay [11] was greater than 100 µM throughout.
On to `CN1C(=O)C2(C)SC1(c1ccccc1)C1C(=O)N(c3ccccc3)C(=O)C12` (stereo unspecified), for which the TGI in assay [1], in assay [2], in assay [3], in assay [4], in assay [5] and in assay [6] was greater than 100 µM in each case. The TGI in [7], in assay [8], in assay [12], in assay [9], in assay [10] and in [11] was greater than 100 µM throughout.
On to `Nc1nc(Cl)cc(NCC2(O)CCC2)n1`, for which the TGI in assay [1], in assay [2], in [3], in assay [4], in assay [5] and in assay [6] was greater than 100 µM in each case. In addition, the TGI in [7], in assay [12], in assay [9], in assay [10] and in assay [11] was greater than 100 µM throughout.
In the case of `CNC(=O)C(C)NC(=O)C(Cc1ccccc1)NC(=O)c1ccccc1` (stereo unspecified), the TGI in [1], in assay [2], in assay [3], in assay [4], in assay [5] and in assay [6] was greater than 100 µM throughout. Further, the TGI in assay [7], in assay [8], in assay [12], in assay [9], in assay [10] and in [11] was greater than 100 µM each time.
With `COc1ccc(N=c2oc3ccccc3cc2C(N)=O)cc1`, the TGI in assay [1], in assay [2], in assay [3], in assay [4], in assay [5] and in assay [6] was greater than 100 µM throughout. For the same compound, the TGI was greater than 100 µM in [7]; greater than 100 µM in assay [8]; greater than 100 µM in [12]; 32.4 µM in [9]; greater than 100 µM in [10]; greater than 100 µM in [11].
For `COC(=O)c1c([N+](=O)[O-])ncn1[C@H]1OC[C@@H](OC(C)=O)[C@@H](OC(C)=O)[C@@H]1OC(C)=O`, the TGI in assay [1], in [2], in [3], in [4], in assay [5] and in [6] was greater than 100 µM in each case. Also, the TGI in assay [7], in assay [8], in assay [9], in assay [10] and in [11] was greater than 100 µM throughout.
For the compound `COc1ccc(C2SC(N)=Nc3c2c(C)nn3C(=O)c2ccccc2O)cc1OC` (stereo unspecified), the TGI in assay [1], in assay [2], in assay [3], in [4], in [5] and in assay [6] was greater than 10 µM each time. The TGI in assay [7], in assay [8], in assay [9], in [10] and in [11] was greater than 10 µM in each case.
Turning to `CC(=O)c1nc2ccccc2n1C(C)C(=O)c1ccccc1` (stereo unspecified), the TGI in assay [1], in assay [2], in assay [3], in assay [4], in assay [5] and in [6] was greater than 100 µM each time. Also, the TGI in [7], in assay [8], in assay [9], in [10] and in [11] was greater than 100 µM each time.
Consider `CCN1CCC(O)(c2ccc(Oc3ccc(Cl)cc3)cc2)C(C(=O)c2ccc(Oc3ccc(Cl)cc3)cc2)C1` (stereo unspecified), for which the TGI stood at 17.7 µM in [1]; 38.8 µM in assay [2]; 34.5 µM in assay [3]; 29.7 µM in assay [4]; 34.5 µM in [5]; 27 µM in assay [7]. In addition, the TGI in assay [8] came out at 28.3 µM; in [12], 24.7 µM; in [9], 27.3 µM; in assay [10], 16.5 µM; in assay [11], 46.8 µM.
Consider `CC1(C)NC(=O)C(NC(=O)C(N)CC(=O)O)CCCCNC(=O)CCNC1=O` (stereo unspecified) (H-DK[Aib][βAla]; lactam 2-C; configuration not given here), for which the TGI in assay [1], in assay [2], in [3], in assay [4], in assay [5] and in assay [6] was greater than 100 µM each time. Also, the TGI in assay [7], in assay [8], in assay [12], in assay [9], in assay [10] and in [11] was greater than 100 µM each time.
On to `COC(=O)[C@]12CC3C=CC1N(C3)C(CBr)c1c2n(S(=O)(=O)c2ccccc2)c2ccccc12` (stereo partly specified), for which the TGI in assay [1], in [2], in assay [3], in [4], in assay [5] and in assay [6] was greater than 100 µM throughout. Further, the TGI in assay [7], in assay [8], in [12], in [9], in [10] and in [11] was greater than 100 µM throughout.
Take `CC(/C=C/C(=O)NO)=C\C(C)C(=O)c1ccc(N(C)C)cc1` (stereo unspecified): the TGI in [1] is greater than 100 µM; in [2], 0.0467 µM; in [3], 41 µM; in assay [4], greater than 60.4 µM; in assay [5] it was 12.9 µM; in assay [7] it was 11.5 µM. The TGI was determined as 0.971 µM in [8], 0.187 µM in assay [12], 0.0863 µM in [9] and 0.104 µM in assay [11].
For `CCn1cc2c(=O)n3ncn(-c4ccc(Br)cc4)c3nc2n1`, the TGI in assay [1], in [2], in [3], in [4], in assay [5] and in [6] was greater than 100 µM throughout. Besides, the TGI in assay [7], in assay [8], in assay [12], in [9] and in [11] was greater than 100 µM each time.
Turning to `CSC12c3cc(C)n(-c4ccc([N+](=O)[O-])cc4)c3CC(C)(C)CN1C(=O)C2Oc1ccccc1` (stereo unspecified), the TGI in assay [2], in assay [3], in assay [4], in assay [5], in [6] and in assay [7] was greater than 100 µM throughout. The TGI in assay [8], in assay [12], in assay [9], in assay [10] and in assay [11] was greater than 100 µM throughout.
`CCOC(=O)C(C(=O)OCC)=C1SC(=Nc2ccccc2)C(=Nc2ccccc2)N1c1ccccc1`: the TGI in assay [1], in assay [2], in assay [3], in assay [4], in assay [5] and in assay [6] was greater than 100 µM throughout. In addition, the TGI in assay [7], in assay [12], in assay [9] and in [11] was greater than 100 µM in each case.
As for `CCOC(=O)C1(C#N)OC(=O)c2cnccc21` (stereo unspecified), the TGI in [1], in [2], in assay [3], in [4], in [5] and in assay [6] was greater than 100 µM in each case. Also, the TGI in [7], in assay [8], in assay [9], in assay [10] and in assay [11] was greater than 100 µM throughout.
Turning to `O=C1C2C(C(=O)N1c1ccccc1)C1(c3ccccc3)CCC2(C(=O)c2ccccc2)O1` (stereo unspecified), the TGI in assay [1], in [2], in [3], in assay [4], in [6] and in assay [7] was greater than 10 µM in each case. In addition, the TGI in assay [8], in assay [12], in [9], in [10] and in assay [11] was greater than 10 µM throughout.
On to `Cc1cc(S(=O)(=O)NC2=NCc3nc4ccccc4n32)c(S)cc1Cl`, for which the TGI in assay [2] was 82.8 µM; in assay [3], 86 µM; in [4], 71.9 µM; in assay [5], 40.9 µM; in assay [6] it was 40.3 µM; in assay [7], 58.1 µM. Besides, the TGI was 63 µM in [8]; 32.1 µM in assay [12]; greater than 100 µM in assay [9]; 35 µM in [10]; 33 µM in [11].
Regarding `COc1cc(OC)cc(OCc2nc3cc(C(F)(F)F)ccc3nc2-c2ccccc2)c1`, the TGI in assay [1], in assay [2], in assay [3], in [4], in assay [5] and in [6] was greater than 100 µM in each case. Moreover, the TGI in [7], in [8], in [9], in assay [10] and in [11] was greater than 100 µM throughout.
As for `CCOC(=O)c1nc2cc(C(F)(F)F)ccc2nc1Oc1ccc(C#N)cc1`, the TGI in [2], in assay [3], in assay [4], in assay [5], in assay [6] and in [7] was greater than 100 µM throughout. Further, the TGI in assay [8], in assay [12], in assay [9], in assay [10] and in [11] was greater than 100 µM in each case.
For the compound `C=CCN(c1cc(OC)c(NC(C)=O)cc1[N+](=O)[O-])S(C)(=O)=O`, the TGI in [2], in assay [3], in [4], in [5], in [6] and in [7] was greater than 100 µM throughout. For the same compound, the TGI in assay [8], in [12], in [9], in assay [10] and in assay [11] was greater than 100 µM in each case.
`CC(=O)OC[C@H]1CN(OC(C)=O)C[C@@H](n2cc(C)c(=O)[nH]c2=O)O1`: the TGI in assay [2], in assay [3], in [4], in [5], in assay [7] and in assay [8] was greater than 100 µM throughout. The TGI in assay [12], in assay [9] and in [11] was greater than 100 µM each time.

The record behind these values is PubChem BioAssay (NCI).
